This test has as its system standardized full-thickness bone defect (diameter: about 9 mm) in the calvarium. The test can be described thus: Test Example 1: rat calvarium bone defect, OCP/Col or β-TCP/Col implant + teriparatide subcutaneous injection. Format: in vivo, Male Wistar rats. The source says: Male Wistar rats (12 weeks old) were each intraperitoneally anesthetized, and a skin incision and a periosteal incision were made in the calvarium part to expose the calvarium. A standardized full-thickness bone defect (diameter: about 9 mm), for which spontaneous recovery could not be expected, was created. Then, one disc-shaped OCP/Col produced in Production Example 2 or one disc-shaped β-TCP/Col produced in Production Example 3 was implanted therein. As the control, rats in which only a bone defect was created, and no sample was implanted (untreated group) were prepared. After the sample was implanted, the periosteum and skin were sutured, and the surgery was completed. […] In the rats of the teriparatide subcutaneous injection group, 10 μg/kg of the teriparatide prepared in Production Example 5 was subcutaneously injected immediately after surgery and every day thereafter. Subcutaneous injection was performed in such a manner that the thawed teriparatide solution was sucked by a 1-mL syringe (27G injection needle), the back skin was sterilized with a dilute Hibitane solution, and then a considerable amount of teriparatide solution was injected subcutaneously in the back. The observation period after surgery was 8 weeks for each group, and 5 rats were used in each period.
Four weeks and eight weeks after surgery, tomography was carried out on the rats in the living state using an X-ray CT scanner for experimental animals (Latheta LCT-200, produced by Hitachi Aloka Medical, Ltd.) at a low X-ray tube voltage, and the state of new bone formation in the bone defect site was carefully examined. Similarly, after CT photography 8 weeks after surgery, the rats were euthanized under anesthesia with an excess amount of pentobarbital. The calvarium and surrounding tissue were taken, and immersed and fixed in 0.1 M phosphate-buffered 4% paraformaldehyde (pH 7.4). The extracted samples were photographed (20 kV, 5 mA) with a soft X-ray camera (CMBW-2, produced by Softex Co., Ltd.), and then decalcified with 10% EDTA to prepare paraffin samples. Then, tissue sections (thickness: 6 μm) cut in the frontal plane were prepared, and a histological search was performed by hematoxylin-eosin staining. Further, using the multiple tissue sections corresponding to the center of the defect of each sample, the ratio of new bone (n-Bone %) in the created defect was examined by histological quantification. Variance analysis, etc., were conducted using the average value and standard deviation of n-Bone % in each group, and a significance test was conducted. The significance level was set at 5%.

The mark [1] stands for this setting: 8 weeks after surgery, hematoxylin-eosin, PTH(+) = teriparatide 10 μg/kg s.c. every day, PTH(−) = none.

Structures are written as SMILES.

For the compound `CC[C@H](C)[C@H](NC(=O)[C@H](CCC(=O)O)NC(=O)[C@H](CO)NC(=O)[C@@H](NC(=O)[C@@H](N)CO)C(C)C)C(=O)N[C@@H](CCC(N)=O)C(=O)N[C@@H](CC(C)C)C(=O)N[C@@H](CCSC)C(=O)N[C@@H](Cc1cnc[nH]1)C(=O)N[C@@H](CC(N)=O)C(=O)N[C@@H](CC(C)C)C(=O)NCC(=O)N[C@@H](CCCCN)C(=O)N[C@@H](Cc1cnc[nH]1)C(=O)N[C@@H](CC(C)C)C(=O)N[C@@H](CC(N)=O)C(=O)N[C@@H](CO)C(=O)N[C@@H](CCSC)C(=O)N[C@@H](CCC(=O)O)C(=O)N[C@@H](CCCN=C(N)N)C(=O)N[C@H](C(=O)N[C@@H](CCC(=O)O)C(=O)N[C@@H](Cc1c[nH]c2ccccc12)C(=O)N[C@@H](CC(C)C)C(=O)N[C@@H](CCCN=C(N)N)C(=O)N[C@@H](CCCCN)C(=O)N[C@@H](CCCCN)C(=O)N[C@@H](CC(C)C)C(=O)N[C@@H](CCC(N)=O)C(=O)N[C@@H](CC(=O)O)C(=O)N[C@H](C(=O)N[C@@H](Cc1cnc[nH]1)C(=O)N[C@@H](CC(N)=O)C(=O)N[C@@H](Cc1ccccc1)C(=O)O)C(C)C)C(C)C` [teriparatide], under “8 weeks after surgery, PTH(+) = teriparatide 10 μg/kg s.c. every day”, the “X-ray photographs of isolated bone defect sites (FIG. 1)” value is “radiopaque images in the defects were equally scarce”. Besides, under setting [1], the “stained pathological specimens, high-magnification images (FIG. 4)” value is on record as “thin new bone extended from the defect margins”; the “stained pathological specimens, low-magnification (×1.25) images (FIG. 3)” value was “thin bone tissue extending from the defect margins (▾) and connective tissue surrounding the bone tissue”. For the same compound, the “ratio of new bone (n-Bone %) in the defect” value (8 weeks after surgery, histological quantification (FIG. 5), PTH(+) = teriparatide 10 μg/kg subcutaneously every day, PTH(−) = no injection, average ± standard deviation) stood at 31.1±10.2%. Besides, for the setting “PTH(+) = teriparatide 10 μg/kg s.c. every day”, the “X-ray photographs (cross sections) of calvarium shot with the rats alive (FIG. 2)” value is on record as “radiopaque images extending from the defect margins (∇) were observed; however, their thickness was less than that of the existing bone”. Besides, under “teriparatide 10 μg/kg s.c. every day, 8 weeks”, the “new bone formation (conclusion from FIGS. 1 to 5)” value is recorded as “new bone formation was not observed”.

The record behind these values is patent US20190151418A1, “COMBINATION OF CALCIUM-PHOSPHATE-CONTAINING POROUS COMPOSITE AND PTH” (TOYOBO CO., LTD., priority 2016, published 2019).
